# In patent US4046897A, “5-Mercaptopyridoxine alkanesulfonates and methods of use and pharmaceutical compositions” (Merck & Co., Inc., priority 1976, dated 1977):
# Where a name gives a salt, the structure may show the parent alone.
# Assay: Comparison of thermal stability of 5-MP salts (pure unformulated compound, colorimetric assay for intact thiol group)
# Type: physicochemical
# Settings: for Thermal Stability % Remaining: pure unformulated salt
# Protocol: Thus, in order to evaluate the relative stability of several salts of 5-mercaptopyridoxine, the test salts selected (i.e., the ethane-1,2-disulfonate, the phosphate, the sulfamate, the nitrate and the hydrochloride) were subjected to accelerated conditions of high temperature as the pure, unformulated, compound. The high temperature date obtained at 80° C. and at 105° C. is conventionally used in the pharmaceutical industry to screen compounds in as short a time as possible. Where a number of derivatives or salts are available, comparative data can be obtained and the test compounds can be ranked in an expected order of stability. The thermally stressed salts were assayed colorimetrically for intact thiol group. The ethanedisulfonate, hydrochloride and sulfamate salts also were subjected to NMR analysis to confirm the chemical analysis. The NMR data supports the chemical data.
"Thermal Stability % Remaining (80° C, 1 week, 10080 min) [%]","Thermal Stability % Remaining (80° C, 3 weeks, 30240 min) [%]","Thermal Stability % Remaining (105° C, 3 days, 4320 min) [%]","Thermal Stability % Remaining (105° C, 7 days, 10080 min) [%]",relative thermal/chemical stability among 5-MP salts (in words) (at the temperatures employed (80° C and 105° C)),"Thermal Stability % Remaining (80° C, 1 week, 10080 min, hydrochloride) [%]","Thermal Stability % Remaining (80° C, 3 weeks, 30240 min, hydrochloride) [%]","Thermal Stability % Remaining (105° C, 3 days, hydrochloride, 4320 min) [%]",Compound
87.2,,,,,,,,Cc1ncc(CS)c(CO)c1O [Nitrate]
101.0,100.2,97.3,99.4,most stable salt,,,,"Cc1ncc(CS)c(CO)c1O [Ethanedisulfonate, Bis(2-methyl-3-hydroxy-4-hydroxymethyl-5-mercaptomethyl-pyridinium) ethane-1,2-disulfonate]"
94.0,75.7,13.0,8.8,,,,,Cc1ncc(CS)c(CO)c1O [Sulfamate]
,,93.0,58.0,,,,,Cc1ncc(CS)c(CO)c1O [Phosphate]
,,,,,70.5,57.3,57.3,"Cc1ncc(CS)c(CO)c1O [Hydrochloride, 5-mercaptopyridoxine hydrochloride]"
